Consider 15 molecules from patent US4616009A, “Neuroleptic indole-3-carboxamide derivatives” (Yoshitomi Pharmaceutical Industries, Ltd., priority 1983, dated 1986).

Read-outs that look alike come from different tables or passages of the source.

For data set [1] the following is noted: reported in U.S. Pat. No. 3,527,761 / J. Med. Chem. 14, 1054 (1971); cited from earlier work.
The conditions of data set [2]: reported in U.S. Pat. No. 3,527,761 / J. Med. Chem. 14, 1054 (1971); cited from earlier work. This is another data set of the same source.
In data set [3] the test system is apomorphine. Nature of the data set: Antiapomorphine activity in mice (spontaneous motility, Animex). In kind it is in vivo, mice (male dd-strain). The conditions noted are these: Mus musculus, 60 min before apomorphine hydrochloride 0.5 mg/kg s.c., dose for 50% suppression of spontaneous motility of control group over 20 min. The protocol: Antiapomorphine Activity in Mice
Groups of 5 male dd-strain mice were used. Test compounds were orally or intraperitoneally administered and 60 minutes thereafter, 0.5 mg/kg of apomorphine hydrochloride was subcutaneously administered. Immediately thereafter, spontaneous motility of the mice was measured with the aid of Animex (manufactured by Columbus Company, U.S.A.) for 20 minutes. The procedure was repeated three times with respective groups. The dose of test compounds required for 50% suppression of spontaneous motility of control group was graphically intraporated and determined as ED50 value.

The nature of data set [4]: Acute toxicity in mice, oral administration. In kind it is in vivo. The conditions noted are these: 500 mg/kg, 5 days observation, male mice. The text has this: The acute toxicity of the compounds of the present invention was studied in 5 male mice weighing 30 to 45 g.
The conditions of data set [5]: reported; cited from earlier work.
Data set [6] has as its system apomorphine. Put plainly: apomorphine-antagonistic activity (studies of the present inventors). The conditions noted are these: according to studies of the present inventors.
For data set [7] the following is noted: prior art; cited from earlier work.
Data set [8] in a line: antihypertensive activity. To be noted: according to studies of the present inventors.

On to `O=C(NC1CCN(CCc2c[nH]c3ccccc23)CC1)c1c[nH]c2ccccc12` [3-{2-[4-(3-indolecarboxamido)-piperidino]ethyl}indole], for which, in data set [1], the antihypertensive activity entry is recorded as “having antihypertensive”. Besides, in data set [2], the antihistaminic activity result is given as “antihistaminic activities”. For the molecule `CCN1CCCC1CNC(=O)c1c(C)[nH]c2ccccc12` (stereo not shown) [Example 1, N-(1-ethyl-2-pyrrolidinylmethyl)-2-methylindole-3-carboxamide], in the data set on apomorphine [3] (po), the ED50 was found to be 17 mg/kg. In turn, `Cc1[nH]c2ccc(F)cc2c1C(=O)NC1CCN(Cc2ccccc2)CC1` [Example 2, N-(1-benzyl-4-piperidyl)-5-fluoro-2-methylindole-3-carboxamide] returned an ED50 with apomorphine [3] (po) of 4.6 mg/kg. Also, in data set [4], the “mortality (acute toxicity)” value is listed as “All animals were survived”. `O=C(NC1CCN(Cc2ccccc2)CC1)c1c[nH]c2ccc(F)cc12` [Example 3, N-(1-benzyl-4-piperidyl)-5-fluoroindole-3-carboxamide] gave an ED50 with apomorphine [3] (po) of 9.5 mg/kg. As to `Cc1c(C(=O)NC2CCN(Cc3ccccc3)CC2)c2cc(F)ccc2n1C` [Example 4, N-(1-benzyl-4-piperidyl)-5-fluoro-1,2-dimethylindole-3-carboxamide], the ED50 in the data set on apomorphine [3] (po) was 27 mg/kg. Molecule `Cc1[nH]c2ccccc2c1C(=O)NC1CCN(Cc2ccccc2)CC1` [Example 7, N-(1-benzyl-4-piperidyl)-2-methylindole-3-carboxamide] showed an ED50 in the data set with apomorphine [3] (po) of 8.7 mg/kg. This ED50 lies about 3.1-fold lower than the previous one. In the data set with apomorphine [3] (po), `O=C(NC1CCN(Cc2ccccc2)CC1)c1c[nH]c2ccccc12` [Example 8, N-(1-Benzyl-4-piperidyl)indole-3-carboxamide] had an ED50 of 7 mg/kg.

Turning to `CCN1CCCC1CNC(=O)c1c(C)[nH]c2ccc(Cl)cc12` (stereo not shown) [Example 9, 5-Chloro-N-(1-ethyl-2-pyrrolidinylmethyl)-2-methylindole-3-carboxamide], the ED50 in the data set with apomorphine [3] (po) was determined as 30 mg/kg. `CCN1CCCC1CNC(=O)c1c(C)[nH]c2ccc(F)cc12` (stereo not shown) [Example 10, N-(1-Ethyl-2-pyrrolidinylmethyl)-5-fluoro-2-methylindole-3-carboxamide] displayed an ED50 in the data set with apomorphine [3] (ip) of 10 mg/kg.

Turning to `Cc1[nH]c2ccc(F)cc2c1C(=O)NC1CCN(Cc2ccccc2)C1` (stereo not shown) [Example 12, N-(1-Benzyl-3-pyrrolidinyl)-5-fluoro-2-methylindole-3-carboxamide], in the data set on apomorphine [3] (po), it took a dose of 5.6 mg/kg to reach the 50% effect level (ED50). Same read-out and setting: the result for `Cc1[nH]c2ccc(F)cc2c1C(=O)NC1CCN(Cc2ccc(Cl)cc2)CC1` [Example 13, N-[1-(p-Chlorobenzyl)-4-piperidyl]-5-fluoro-2-methylindole-3-carboxamide] reads 5.6 mg/kg. The same measure, in the same setting: the result for `Cc1[nH]c2ccc(F)cc2c1C(=O)NC1CCN(Cc2ccc(F)cc2)CC1` [Example 14, 5-Fluoro-N-[1-(p-fluorobenzyl)-4-piperidyl]-2-methylindole-3-carboxamide] reads 5.2 mg/kg; that for `Cc1[nH]c2ccc(F)cc2c1C(=O)NC1CCN(Cc2cccc(Cl)c2)CC1` [Example 18, N-[1-(m-Chlorobenzyl)-4-piperidyl]-5-fluoro-2-methylindole-3-carboxamide], 24 mg/kg. With `CCN1CCCC1CNC(=O)c1cc(S(N)(=O)=O)ccc1OC` (stereo not shown) [Sulpiride, reference compound], the “bioavailability in oral administration” value in data set [5] is given as “low bioavailability”. The molecule also gave an ED50 with apomorphine [3] (po) of 330 mg/kg. Consider `O=C(NC1CCN(CCc2c[nH]c3ccccc23)CC1)c1ccccc1` [indoramin, 3-[2-(4-benzamido-1-piperidyl)-ethyl]indole], for which the apomorphine-antagonistic activity result in the data set with apomorphine [6] is recorded as “weak”. Besides, the antihypertensive activity result in data set [1] was “stronger antihypertensive activity”; in data set [8], “relatively strong”. Also, the anticonvulsant activity entry in data set [7] was “anticonvulsant activity”. Moreover, the antihistaminic activity result in data set [2] was “exhibits antihistaminic activity”.
